Data published in patent US20070270413A1, “Mirtazapine for the treatment of neuropathic pain” (N.V. Organon, priority 2006, published 2007).

Columns and labels:
[1] = test system: mechanical allodynia induced by ligation of the L5 spinal nerve; test: Chung neuropathic model: mechanical allodynia, paw withdrawal threshold to von Frey filaments; type: in vivo, rat; details: 10 and 30 μmol/kg, 40 min after administration, P<0.05 vs vehicle (Mann Whitney)
[2] = test system: mechanical allodynia induced by ligation of the L5 spinal nerve; test: as above; type: in vivo, rat
Source text: The Chung Neuropathic Model is an animal model of neuropathic pain. Animals with tight ligation of the L5 spinal nerve develop hyperalgesia and allodynia that can be measured using standard behavioural paradigms. Chung surgery: animals were anaesthetized with isoflurane administered in oxygen. Under sterile conditions, a longitudinal incision (about 5 mm lateral from the midline) was made at the lower lumbar-sacral level, exposing the paraspinal muscles on the left. The paraspinal muscles were then isolated and removed from the L4 spinous process to the sacrum using small blunt scissors. This opened up the space ventrolateral to the articular processes, dorsal to the L6 transverse process, and medial to the ileum. Small roungers were used to remove the L6 transverse process as completely as possible. The L5 spinal nerve was then isolated and tightly ligated. Upon completion of the operation, haemostasis was confirmed and the wound closed in layers using silk sutures and metal clips. Anaesthesia was then discontinued. Animals were kept in a cage with warm bedding until they had completely recovered from anaesthesia. The rats' withdrawal threshold to a mechanical stimulus (calibrated von Frey filaments) was measured (baseline reading). Rats were placed on an elevated (˜40 cm) mesh floor in Perspex boxes and filaments of increasing force (2.6-167 mN) were applied to the plantar surface of the paw using an up and down method (Chaplan et al., 1994). The paw was touched with one of a series of 8 von Frey hairs with logarithmically incremental stiffness. The von Frey hair was presented perpendicular to the plantar surface with sufficient force to cause buckling against the paw, and held for approximately 1-3 seconds. A positive response was noted if the paw was sharply withdrawn. A cut-off of 15 g was selected as the upper limit for testing, since stiffer hairs tend to raise the entire limb rather than buckling, substantially changing the nature of the stimulus. […] Data were expressed as mean±s.e.m. and compared between groups using the Kruskal-Wallis one-way analysis of variance, a non-parametric statistical test. Each of the treatment groups were then compared against the vehicle group, using the non-parametric Dunn's test. The time of maximum effect (Tmax) was calculated.

[3] = Side effects observed after s.c. dosing in the Chung neuropathic model
Experimental: Following baseline measurements each animal was anaesthetised and the L5 spinal nerve tightly ligated. The animals were allowed to recover from the surgery for a period of at least five days. On the day of drug administration, the paw withdrawal thresholds were re-measured (0 min). […] Readings were then made at regular intervals after compound injection.

In the case of `CN1CCN2c3ncccc3Cc3ccccc3C2C1` (racemic) [Racemic mirtazapine, mirtazapine], the Withdrawal threshold [1] was “up to 4 g” and the “Effect on withdrawal threshold” value ([2]; 10 and 30 μmol/kg, 40 min after administration, not dose-dependent) was “small but significant effect”.
`CN1CCN2c3ncccc3Cc3ccccc3[C@H]2C1` [S(+)-mirtazapine] showed a Tmax (time of maximum effect) ([2]; 0.3 μmol/kg s.c.) of 1 h, a Tmax (time of maximum effect) ([2]; 3 μmol/kg s.c.) of 1 h and a Tmax (time of maximum effect) ([2]; 30 μmol/kg s.c., Table 1) of 1 h. For the same compound, the Tmax (time of maximum effect) ([2]; 60 μmol/kg s.c.) was 1 h, the “Reversal of mechanical allodynia” value ([2]; 120 μmol/kg s.c.) was 53 % of the baseline and the Tmax (time of maximum effect) ([2]; 120 μmol/kg s.c.) was 1 h. The Anti-allodynic activity ([2]; 60 and 120 μmol/kg s.c.) was “Anti-allodynic activity”, the “Effect on mechanical allodynia” value ([2]; subcutaneous administration, maleate salt) was “significantly attenuated” and the Injection site finding ([3]; 120 μmol/kg s.c.) was “necrosis at site of injection”. The “Reaction on injection (s.c.)” value ([3]; 120 μmol/kg s.c.) was “vocalisation/struggle on injection” and the “Behaviour when returned to holding cages after testing” value ([3]; 60 and 120 μmol/kg group) was “hyperactive/excitable behaviour”.
Compound R-mirtazapine [reference compound] has a Tmax (time of maximum effect) ([2]; 10 μmol/kg s.c., Table 2) of 0.5 h, a Tmax (time of maximum effect) ([2]; 30 μmol/kg s.c., Table 2) of 0.5 h and a Tmax (time of maximum effect) ([2]; 100 μmol/kg s.c., Table 2) of 0.5 h. The “Effect on mechanical allodynia” value ([2]; 10-100 μmol/kg s.c., free base) was “no effect” and the Anti-allodynic activity ([2]; doses up to 100 μmol/kg s.c.) was “no effect”.
